This is an account of results in patent US7709645B2, “Pyrrolo-pyridine kinase modulators” (SGX Pharmaceuticals, Inc., priority 2004, dated 2010).

A word on the pIC50: it is the IC50 on a negative log10 scale, so that one unit is a factor of ten. A lower pIC50 goes with a high IC50.

pIC50: −log10 of the molar value.

The subject of the first experiment is Ba/F3-T315I cells. Briefly: Ba/F3-T315I XTT Assay (cell survival). Format: cell-based. The note with it: 72 hours. Here is the method:
MV4-11 and THP cells were maintained in Iscove's Modified Dulbecco's Medium supplemented with 10% fetal bovine serum (FBS) and penicillin/streptomycin, Ba/F3 cells were maintained in RPMI 1640 supplemented with 10% FBS, penicillin/streptomycin and 5 ng/ml recombinant mouse IL-3.
Compounds were tested in the following assays in duplicate.
96-well XTT assay: Cells (e.g. BaF3 315I, M351I, or E255K cells) were grown in growth media containing various concentrations of compounds (duplicates) on a 96-well plate for 72 hours at 37° C. The starting cell number was 5000-8000 cells per well and volume was 120 μl. At the end of the 72-hour incubation, 40 μl of XTT labeling mixture (50:1 solution of sodium 3′-[1-(phenylamino-carbonyl)-3,4-tetrazolium]-bis(4-methoxy-6-nitro) benzene sulfonic acid hydrate and Electron-coupling reagent: PMS (N-methyl dibenzopyrazine methyl sulfate) were added to each well of the plate. After an additional 2-6 hours of incubation at 37° C., the absorbance reading at 405 nm with background correction at 650 nm was measured with a spectrophotometer.
Background: Tetrazolium dyes change colour on reduction, which living cells bring about.
As for `COc1ccccc1-c1c[nH]c2ncc(-c3ccc4[nH]cc(CC(=O)O)c4c3)cc12` [AE10], the negative logarithm of the IC50 (pIC50) was above 7.00.

The next experiment has as its target T1, Autophosphorylated AurA kinase (Homo sapiens, UniProt O14965).
T1 construct: made in house; host or cells: Sf9 insect cells
T1 sequence (O14965 1-403): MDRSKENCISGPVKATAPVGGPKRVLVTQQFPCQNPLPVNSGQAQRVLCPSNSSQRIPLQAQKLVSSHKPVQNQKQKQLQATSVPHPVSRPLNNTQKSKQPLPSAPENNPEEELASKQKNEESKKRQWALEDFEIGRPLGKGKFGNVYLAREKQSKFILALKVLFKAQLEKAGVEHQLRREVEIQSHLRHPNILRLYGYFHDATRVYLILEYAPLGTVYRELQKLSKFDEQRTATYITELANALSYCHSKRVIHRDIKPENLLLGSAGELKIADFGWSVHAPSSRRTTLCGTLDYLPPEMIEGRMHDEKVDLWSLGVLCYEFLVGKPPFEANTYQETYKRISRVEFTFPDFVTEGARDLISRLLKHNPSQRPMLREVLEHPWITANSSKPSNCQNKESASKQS
Briefly: AurA Bioassay (luminescence-based enzyme assay, Kinase-Glo). Format: biochemical. The note with it: 10 μM ATP. The text has this: In addition to the c-Abl PK/LDH coupled assay (above), homogeneous luminescence-based inhibitor screening assays were developed for c-Abl, MET, AurA, and PDK1 kinases (among others). Each of these assays made use of an ATP depletion assay (Kinase-Glo™, Promega Corporation, Madison, Wis.) to quantitate kinase activity. The Kinase-Glo™ format uses a thermostable luciferase to generate luminescent signal from ATP remaining in solution following the kinase reaction. The luminescent signal is inversely correlated with the amount of kinase activity.
Materials: Kemptide peptide substrate=LRRASLG (SEQ ID NO:2) (Biopeptide, San Diego, Calif.), ATP (Sigma Cat#A-3377, FW=551), HEPES buffer, pH 7.5, 10% Brij 35 (Calbiochem Cat#203728), MgCl2, Staurosporine (Streptomyces sp. Sigma Cat#85660-1MG), white Costar 384-well flat bottom plate (VWR Cat#29444-088), Autophosphorylated AurA kinase (see below), Kinase-Glo™ (Promega Cat#V6712).
Stock Solutions: 10 mM Kemptide peptide (7.72 mg/ml in water), stored at −20° C.; 100 mM HEPES buffer+0.015% Brij 35, pH 7.5 (5 ml 1M HEPES stock+75 μL 10% Brij 35+45 ml miliQH2O); 10 mM ATP (5.51 mg/ml in dH2O) stored at −20° C. (diluted 50 μl into total of 10 ml miliQH2O daily=50 μM ATP working stock); 100 mM MgCl2; […] Staurosporine, 2× Kinase-Glo™ reagent (made fresh or stored at −20° C.).
AurA Autophosphorylation Reaction: ATP and MgCl2 were added to 1-5 mg/ml AurA at final concentrations of 10 mM and 100 mM, respectively. The autophosphorylation reaction was incubated at 21° C. for 2-3 h. The reaction was stopped by the addition of EDTA to a final concentration of 50 mM, and samples were flash frozen with liquid N2 and stored at −80° C.
Standard Assay Setup for 384-well format (20 μl kinase reaction, 40 μl detection reaction): 10 mM MgCl2; 0.2 mM Kemptide peptide; […] test compound (in DMSO); 0.3 μg/ml Autophosphorylated AurA kinase; 10 μM ATP; 100 mM HEPES+0.015% Brij buffer. Positive controls contained DMSO with no test compound. Negative controls contained 5 μM staurosporine. The kinase reactions were initiated at time t=0 by the addition of ATP. Kinase reactions were incubated at 21° C. for 45 min, then 20 μl of Kinase-Glo™ reagent were added to each well to quench the kinase reaction and initiate the luminescence reaction. After a 20 min incubation at 21° C., the luminescence was detected in a plate-reading luminometer.
The Sf9 insect cell pellets (˜18 g) produced from 6 L of cultured cells expressing human Aurora-2 were resuspended in 50 mM Na Phosphate pH 8.0, 500 mM NaCl, 10% glycerol, 0.2% n-octyl-β-D-glucopyranoside (BOG) and 3 mM β-Mercaptoethanol (BME). One tablet of Roche Complete, EDTA-free protease inhibitor cocktail (Cat# 1873580) and 85 units Benzonase (Novagen Cat#70746-3)) were added per 1 L of original culture. Pellets were resuspended in approximately 50 ml per 1 L of original culture and were then sonicated on ice with two 30-45 sec bursts (100% duty cycle). Debris was removed by centrifugation and the supernatant was passed through a 0.8 μm syringe filter before being loaded onto a 5 ml Ni^2+ HiTrap column (Pharmacia). The column was washed with 6 column volumes of 50 mM Na Phosphate pH 8.0, 500 mM NaCl, 10% glycerol, 3 mM BME. The protein was eluted using a linear gradient of the same buffer containing 500 mM Imidazole. The eluant (24 ml) was cleaved overnight at 4° C. in a buffer containing 50 mM Na Phosphate pH 8.0, 500 mM NaCl, 10% glycerol, 3 mM BME and 10,000 units of TEV (Invitrogen Cat# 10127-017). […]
On the technique in general: Kinase-Glo reads ATP consumption through a luciferase reaction.
Compound `CNC(=O)c1cncc(-c2cnc3[nH]cc(-c4ccccc4OC)c3c2)c1` [AE1] had a pIC50 of 5.30 to 6.30.
The same measure, in the same setting: the same measure for `COc1ccccc1-c1c[nH]c2ncc(-c3ccc(S(N)(=O)=O)s3)cc12` [AE11]: 5.30 to 6.30; for `COc1ccccc1-c1c[nH]c2ncc(-c3cccc(S(C)(=O)=O)c3)cc12` [AE13]: 5.30 to 6.30.
Regarding `COc1ccccc1-c1c[nH]c2ncc(-c3ccc[nH]3)cc12` [AE67], the pIC50 is 5.30 to 6.30.
On the same count and under the same terms, the same measure for `COCCOc1ccc(-c2cnc3[nH]cc(-c4ccccc4OC)c3c2)cc1OCCOC` [AE68]: 5.30 to 6.30.
